Laboratory results published in patent US9073955B2, “2-amino-4-arylthiazole compounds as TRPA1 antagonists” (Glenmark Pharmaceuticals, S.A., priority 2010, dated 2015).
Read-outs that look alike come from different tables or passages of the source.

Assays:
[1] = Determination of solubility by shake flask method (water); assay type: physicochemical; conditions: for aqueous solubility over the parent thiazole acetamide: compared with the corresponding parent compound of formula (1); for solubility at 15 min: thermodynamic from solid, ‘P’ substituted thiazole compound, water, 37° C., shake flask
Procedure: About 1 mg of test substance was taken in test tube and water was added in the increment of 1 ml with shaking after addition of media (water). Solubility was observed visually also. After completion of addition of 10 ml volume of media (water), test tube containing sample solution were put on a mechanical shaker set at 37° C. and 200 rpm for shaking up to 15 minute. After shaking, content of flask was filtered through 0.45μ filter. This filtered solution is analyzed using HPLC method for quantification. A sample solution of 1 mg in 10 ml of DMSO is used as reference standard for quantifying dissolved test substance in media. Solubility is expressed as mcg/ml.
Aqueous solubility of ‘P’ substituted thiazole compounds and the parent thiazole compounds were determined using the above described procedure and the results are given Table 3.

Human TRPA1 = target: T1, Human TRPA1 (Homo sapiens, UniProt O75762); experiment: 45Calcium uptake assay: inhibition of AITC induced cellular uptake of radioactive calcium; assay type: cell-based; conditions: human TRPA1 expressing CHO cells, AITC 30 μM; for inhibition at 1 µM: read-out: Percentage inhibition at 1.0 μM; for inhibition at 10 µM: read-out: Percentage inhibition at 10.0 μM
T1 construct: expressed in transfected cells; host or cells: CHO cells (grown with 400 μg/ml G-418)
Procedure: The illustrative examples of the present invention were screened for TRPA1 activity according to a modified procedure described in (a) Tóth, A. et al. Life Sciences, 2003, 73, 487-498. ([…]. et al, Proc. Natl. Acad. Sci. U.S.A., 2007, 104, 13525-13530. The screening of the compounds can be carried out by other methods and procedures known to persons skilled in the art. Screening for TRPA1 Antagonist Using the ^45Calcium Uptake Assay: The inhibition of TRPA1 receptor activation was measured as inhibition of allyl isothiocyanate (AITC) induced cellular uptake of radioactive calcium. Test compounds were dissolved in 100% DMSO to prepare 10 mM stock and then diluted using plain medium with 0.1% BSA and 1.8 mM CaCl2 to get the desired concentration. The final concentration of DMSO in the reaction was 0.5% (v/v). Human TRPA1 expressing CHO cells were grown in F-12 DMEM medium with 10% FBS, 1% penicillin-streptomycin solution, and 400 μg/ml of G-418. Cells were seeded 24 h prior to the assay in 96 well plates so as to get 50,000 cells per well on the day of experiment. Cells were treated with the test compounds for 10 minutes followed by the addition of AITC at a final concentration of 30 μM and 5 μCi/ml^45Ca^+2 for 3 minutes. Cells were washed and lysed using a buffer containing 1% Triton X-100, 0.1% deoxycholate and 0.1% SDS. Radioactivity in the lysate was measured in a Packard TopCount after addition of liquid scintillant. (Toth et al, Life Sciences (2003) 73, 487-498; McNamara C R et al, Proceedings of the National Academy of Sciences, (2007) 104, 13525-13530). Concentration response curves were plotted as a % of maximal response obtained in the absence of test antagonist. IC50 values can be calculated from concentration response curve by nonlinear regression analysis using GraphPad PRISM software.

[2] = Rat pharmacokinetic (PK) study, oral suspension; assay type: in vivo, male rats (Sprague Dawley); conditions: for pharmacokinetic properties (Cmax and AUC) compared to the parent thiazole acetamide: compared with the corresponding parent compound of formula (1)
Procedure: PK values were obtained in male rats (strain: Sprague Dawley) orally dosed with the compounds of the present invention as suspension. Accurately weighed quantity of compound of present invention (corrected for purity and salt factor) was transferred into a clean and dry mortar. To this mortar was added 2.5 μL/mL Tween 80 and triturated until the compound gets properly wet. To this, 0.5% (w/v) methyl cellulose suspension was added in geometric proportions and triturated thoroughly to form a uniform suspension.
Animals were provided with food and water ad libitum through out the study period. Animals were dosed orally with the compounds using a gavage needle at 10 mL/kg body weight. Blood samples (250 μl approx.) were collected from male Sprague Dawley retro orbital sinus using rat capillary tubes into 0.6 mL eppendorf tubes with tripotassium ethylenediaminetetraacetic acid (K3 EDTA) (25 μL) as anticoagulant. Samples were collected at 0.5, 1.0, 2.0, 4.0, 6.0, 8.0, 12.0 and 24.0 hr post dosing for compounds. Then samples were centrifuged immediately at 1000 g for 10 min. at 4° C. Plasma samples were separated and stored at −70° C. till analysis. Samples were processed and analyzed using LCMS/MS. Pharmacokinetic parameters were calculated using Winonlin software. Table 4 provides the pK values (Cmax, AUC) obtained in these studies.

T1 sequence (O75762 whole entry): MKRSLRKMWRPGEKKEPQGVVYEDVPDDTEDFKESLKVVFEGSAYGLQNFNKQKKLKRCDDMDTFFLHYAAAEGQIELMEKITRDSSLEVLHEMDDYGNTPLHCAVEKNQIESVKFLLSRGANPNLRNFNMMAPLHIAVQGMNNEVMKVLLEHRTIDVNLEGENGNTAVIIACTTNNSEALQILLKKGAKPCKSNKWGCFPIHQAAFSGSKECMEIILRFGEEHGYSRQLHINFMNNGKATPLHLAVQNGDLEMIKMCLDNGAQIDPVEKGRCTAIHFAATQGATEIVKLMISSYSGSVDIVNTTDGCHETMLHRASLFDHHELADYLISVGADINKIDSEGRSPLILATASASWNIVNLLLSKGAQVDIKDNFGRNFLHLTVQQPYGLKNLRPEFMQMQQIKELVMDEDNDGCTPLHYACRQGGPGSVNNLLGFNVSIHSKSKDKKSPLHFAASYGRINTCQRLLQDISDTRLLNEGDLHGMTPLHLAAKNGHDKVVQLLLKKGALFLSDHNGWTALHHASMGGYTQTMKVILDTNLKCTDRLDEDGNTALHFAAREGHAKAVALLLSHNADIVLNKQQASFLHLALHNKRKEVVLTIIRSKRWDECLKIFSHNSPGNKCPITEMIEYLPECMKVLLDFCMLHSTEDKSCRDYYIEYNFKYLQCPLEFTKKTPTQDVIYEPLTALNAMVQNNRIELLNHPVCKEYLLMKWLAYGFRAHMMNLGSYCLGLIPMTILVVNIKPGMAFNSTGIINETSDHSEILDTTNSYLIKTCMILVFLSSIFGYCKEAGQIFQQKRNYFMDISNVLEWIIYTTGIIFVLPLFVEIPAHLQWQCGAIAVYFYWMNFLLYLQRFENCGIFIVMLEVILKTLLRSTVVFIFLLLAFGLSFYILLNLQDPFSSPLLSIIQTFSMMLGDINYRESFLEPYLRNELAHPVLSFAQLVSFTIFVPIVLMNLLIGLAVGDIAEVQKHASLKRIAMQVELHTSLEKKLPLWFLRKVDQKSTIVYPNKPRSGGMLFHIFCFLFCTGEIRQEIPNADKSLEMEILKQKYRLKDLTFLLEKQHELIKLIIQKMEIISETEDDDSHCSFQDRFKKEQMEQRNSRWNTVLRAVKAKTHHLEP

Row | SMILES | inhibition at 1 µM (Human TRPA1; 1.0 μM) | inhibition at 10 µM (Human TRPA1; 10.0 μM) | IC50 (Human TRPA1) | pharmacokinetic properties (Cmax and AUC) compared to the parent thiazole acetamide [2] | solubility at 15 min [1] | other results
1 | Cl.Cn1c(=O)c2c(CC(=O)/N=c3\scc(-c4ccc(F)c(C(F)(F)F)c4F)n3COC(=O)CN)csc2n(C)c1=O [Example 3, [4-[2,4-Difluoro-3-(trifluoromethyl)phenyl]-2-{[(1,3-dimethyl-2,4-dioxo-1,2,3,4-tetrahydrothieno[2,3-d]pyrimidin-5-yl)acetyl]imino}-1,3-thiazol-3 (2H)-yl]methyl glycinate hydrochloride] | 100% | 99.9% | < 100 nM |  |  | aqueous solubility over the parent thiazole acetamide [1]: better aqueous solubility
2 | CC[C@H](C)[C@H](N)C(=O)OCn1c(-c2ccc(F)c(C(F)(F)F)c2F)cs/c1=N\C(=O)Cc1csc2c1c(=O)n(C)c(=O)n2C.Cl [Example 7, [4-[2,4-Difluoro-3-(trifluoromethyl)phenyl]-2-{[(1,3-dimethyl-2,4-dioxo-1,2,3,4-tetrahydrothieno[2,3-d]pyrimidin-5-yl)acetyl]imino}-1,3-thiazol-3 (2H)-yl]methyl L-isoleucinate hydrochloride] | 98.6% | 99.6% | < 100 nM | better pharmacokinetic properties |  | 
3 | Cn1c(=O)c2c(CC(=O)/N=c3\scc(-c4ccc(F)c(C(F)(F)F)c4F)n3COP(=O)(O)O)csc2n(C)c1=O [Example 13, [4-[2,4-Difluoro-3-(trifluoromethyl)phenyl]-2-{[(1,3-dimethyl-2,4-dioxo-1,2,3,4-tetrahydrothieno[2,3-d]pyrimidin-5-yl)acetyl]imino}-1,3-thiazol-3 (2H)-yl]methyl dihydrogen phosphate] |  |  | > 500 nM |  | > 2.5 µg/mL | inhibition at 1 µM (Human TRPA1; CHO, 1.0 μM): 75.3%; inhibition at 10 µM (Human TRPA1; CHO, 10.0 μM): 99.3%
4 | Cn1c(=O)c2c(CC(=O)/N=c3\scc(-c4ccc(F)c(C(F)(F)F)c4F)n3COP(=O)([O-])[O-])csc2n(C)c1=O.[Na+].[Na+] [Example 14, Disodium[4-[2,4-difluoro-3-(trifluoromethyl)phenyl]-2-{[(1,3-dimethyl-2,4-dioxo-1,2,3,4-tetrahydrothieno[2,3-d]pyrimidin-5-yl)acetyl]imino}-1,3-thiazol-3(2H)-yl]methyl phosphate] |  |  | 100 to 500 nM |  | > 1200 µg/mL | 
5 | Cn1nc2c(c1CC(=O)N=c1scc(-c3ccc(F)c(C(F)(F)F)c3F)n1COP(=O)([O-])[O-])c(=O)n(C)c(=O)n2C.[Na+].[Na+] [Example 29, Disodium-(4-(2,4-difluoro-3-(trifluoromethyl)phenyl)-2-((2-(2,5,7-trimethyl-4,6-dioxo-4,5,6,7-tetrahydro-2H-pyrazolo[3,4-d]pyrimidin-3-yl)acetyl)imino)thiazol-3 (2H)-yl)methyl phosphate] |  |  | > 500 nM |  | > 110 µg/mL | 
6 | Cn1c(=O)c2c(CC(=O)Nc3nc(-c4ccc(C(F)(F)F)c(F)c4F)cs3)nsc2n(C)c1=O [parent of Example 31, N-{4-[2,3-difluoro-4-(trifluoromethyl)phenyl]-1,3-thiazol-2-yl}-2-(5,7-dimethyl-4,6-dioxo-4,5,6,7-tetrahydro[1,2]thiazolo[5,4-d]pyrimidin-3-yl)acetamide, reference compound] |  |  |  |  |  | Cmax ([2]; rat, plasma, parent thiazole compound of the example, male Sprague Dawley rats, oral suspension): < 250 ng/mL; AUC(0-t) ([2]; rat, plasma, parent thiazole compound of the example, male Sprague Dawley rats, oral suspension, read-out: AUC0-24): < 2500 ng·h/mL

Continued, in another order:

Row | inhibition at 1 µM (Human TRPA1; 1.0 μM) | inhibition at 10 µM (Human TRPA1; 10.0 μM) | IC50 (Human TRPA1) | pharmacokinetic properties (Cmax and AUC) compared to the parent thiazole acetamide [2] | solubility at 15 min [1] | SMILES | other results
7 | 89.8% | 98.6% | 100 to 500 nM | better pharmacokinetic properties |  | CC[C@H](C)[C@H](N)C(=O)OCn1c(-c2ccc(C(F)(F)F)c(F)c2)cs/c1=N\C(=O)Cc1csc2c1c(=O)n(C)c(=O)n2C.Cl [Example 6, [2-{[(1,3-Dimethyl-2,4-dioxo-1,2,3,4-tetrahydrothieno[2,3-d]pyrimidin-5-yl)acetyl]imino}-4-[3-fluoro-4-(trifluoromethyl)phenyl]-1,3-thiazol-3(2H)-yl]methyl L-isoleucinate hydrochloride] | 
8 | 90.5% | 89.3% | 100 to 500 nM |  | > 29 µg/mL | Cl.Cn1c(=O)c2c(CC(=O)/N=c3\scc(-c4ccc(F)c(C(F)(F)F)c4F)n3COC(=O)C3CCNCC3)csc2n(C)c1=O [Example 10, [4-[2,4-Difluoro-3-(trifluoromethyl)phenyl]-2-{[(1,3-dimethyl-2,4-dioxo-1,2,3,4-tetrahydrothieno[2,3-d]pyrimidin-5-yl)acetyl]imino}-1,3-thiazol-3(2H)-yl]methyl piperidine-4-carboxylate hydrochloride] | aqueous solubility over the parent thiazole acetamide [1]: better aqueous solubility
9 | 96.7% | 96.2% | < 100 nM | better pharmacokinetic properties |  | Cc1oc2c(c1CC(=O)/N=c1\scc(-c3ccc(OC(F)(F)F)c(Cl)c3)n1COC(=O)CN)c(=O)n(C)c(=O)n2C.Cl [Example 20, [4-[3-Chloro-4-(trifluoromethoxy)phenyl]-2-{[(1,3,6-trimethyl-2,4-dioxo-1,2,3,4-tetrahydrofuro[2,3-d]pyrimidin-5-yl)acetyl]imino}-1,3-thiazol-3 (2H)-yl]methyl glycinate hydrochloride] | 
10 |  |  | < 100 nM | better pharmacokinetic properties |  | Cc1oc2c(c1CC(=O)/N=c1\scc(-c3ccc(OC(F)(F)F)c(Cl)c3)n1COC(=O)[C@@H](N)C(C)C)c(=O)n(C)c(=O)n2C.Cl [Example 21, [4-[3-Chloro-4-(trifluoromethoxy)phenyl]-2-{[(1,3,6-trimethyl-2,4-dioxo-1,2,3,4-tetrahydrofuro[2,3-d]pyrimidin-5-yl)acetyl]imino}-1,3-thiazol-3(2H)-yl]methyl L-valinate hydrochloride] | inhibition at 1 µM (Human TRPA1; CHO, 1.0 μM): 93.8%; inhibition at 10 µM (Human TRPA1; CHO, 10.0 μM): 99.9%
11 | 91.2% | 97.8% | 100 to 500 nM | better pharmacokinetic properties |  | Cc1oc2c(c1CC(=O)/N=c1\scc(-c3ccc(OC(F)(F)F)c(Cl)c3)n1COC(=O)C1CCNCC1)c(=O)n(C)c(=O)n2C.Cl [Example 23, [4-[3-Chloro-4-(trifluoromethoxy)phenyl]-2-{[(1,3,6-trimethyl-2,4-dioxo-1,2,3,4-tetrahydrofuro[2,3-d]pyrimidin-5-yl)acetyl]imino}-1,3-thiazol-3 (2H)-yl]methyl piperidine-4-carboxylate hydrochloride] | 
12 |  |  |  |  | > 75 µg/mL | Cc1oc2c(c1CC(=O)/N=c1\scc(-c3ccc(OC(F)(F)F)c(Cl)c3)n1COP(=O)([O-])[O-])c(=O)n(C)c(=O)n2C.[Na+].[Na+] [Example 26, Disodium[4-[3-chloro-4-(trifluoromethoxy)phenyl]-2-{[(1,3,6-trimethyl-2,4-dioxo-1,2,3,4-tetrahydrofuro[2,3-d]pyrimidin-5-yl)acetyl]imino}-1,3-thiazol-3 (2H)-yl]methyl phosphate] | Percentage inhibition at 1.0 μM (Human TRPA1; 1.0 μM): 12.64%; Percentage inhibition at 10.0 μM (Human TRPA1; 10.0 μM): 96.25%
